Experimental data as given in patent US5279836A, “Topical use of calcitonin for the preparation of medications in senile idiopathic cataract and a pharmaeutical composition thereof” (Mediator S.R.L., priority 1991, dated 1994).
Positions of bridges follow the written chain, without caps; N, C: chain ends. Non-standard residues stand in square brackets, D forms with d. Residues, ends and D or L forms follow the SMILES beside them. Asu = N[C@@H](CCCCCC(=O)O)C(=O)O

How the values were obtained:
sheep lens = sheep lens in vitro, incubation; cited from earlier work
corneal epithelium = test: Systemic and local (corneal) tolerance after topical instillation of the collyrium; type: in vivo, rabbit; conditions: rabbits, topical collyrium 5 U.MRC; 2% fluorescein test
Protocol: After the Keratocentesis a new test of the corneal surface integrity was performed with instillation of 2% fluorescein and washing with physiological solution.

In the case of calcitonin, the “calcium levels in the lens” value (sheep lens) is listed as “raises the calcium levels proportionally with the incubation times”.
In the case of CC(C)C[C@H](NC(=O)[C@H](CCCCN)NC(=O)CNC(=O)[C@H](CC(C)C)NC(=O)[C@@H](NC(=O)[C@@H]1CCCCCC(=O)N[C@@H](CO)C(=O)N[C@@H](CC(N)=O)C(=O)N[C@@H](CC(C)C)C(=O)N[C@@H](CO)C(=O)N[C@@H]([C@@H](C)O)C(=O)N1)C(C)C)C(=O)N[C@@H](CO)C(=O)N[C@@H](CCC(N)=O)C(=O)N[C@@H](CCC(=O)O)C(=O)N[C@@H](CC(C)C)C(=O)N[C@@H](Cc1c[nH]cn1)C(=O)N[C@@H](CCCCN)C(=O)N[C@@H](CC(C)C)C(=O)N[C@@H](CCC(N)=O)C(=O)N[C@H](C(=O)N[C@@H](Cc1ccc(O)cc1)C(=O)N1CCC[C@H]1C(=O)N[C@@H](CCCNC(=N)N)C(=O)N[C@H](C(=O)N[C@@H](CC(=O)O)C(=O)N[C@H](C(=O)NCC(=O)N[C@@H](C)C(=O)NCC(=O)N[C@H](C(=O)N1CCC[C@H]1C(N)=O)[C@@H](C)O)C(C)C)[C@@H](C)O)[C@@H](C)O [elcatonin] (SNLST[Asu]VLGKLSQELHKLQTYPRTDVGAGTP-NH2; lactam N-6), the “systemic phenomena of drug intolerance and local toxic phenomena (corneal epithelium)” value (corneal epithelium) is reported as “No animal showed systemic phenomena of the drug intolerance nor local toxic phenomena”.
